Experiments:
Assay type in all cases: in vivo
[1] = Organ distribution of ASK1 inhibitor in rats after intravenous administration; details: male, Sprague-Dawley, rat, single IV 10 mg/kg
Experimental: The objective of this study was to investigate organ (liver, heart, kidney, pancreas, spleen and skin) distribution of ASK1 inhibitor in male Sprague Dawley rats following a single intravenous (IV) administration at a dose of 10 mg/kg. Three rats are administered intravenously with a solution formulation of ASK1 inhibitor 2-(6-(4-cyclopropyl-4H-1,2,4-triazol-3-yl)pyridin-2-yl)-5-(morpholine-4-carbonyl)isoindolin-1-one in 5% NMP, 15% Solutol HS-15, 20% PEG-400 and 60% HpBetaCD at 10 mg/kg dose. 2-(6-(4-Cyclopropyl-4H-1,2,4-triazol-3-yl)pyridin-2-yl)-5-(morpholine-4-carbonyl)isoindolin-1-one was prepared as described in US2018/0291002 which is herein incorporated by reference in its entirety.
(§1) Blood samples (approximately 120 μL) were collected under light isoflurane anesthesia from retro orbital plexus from a set of three rats at 1 h post IV injection. Immediately after blood collection, plasma was harvested by centrifugation at 4000 rpm, 10 min at […] and samples were stored at −70±10° C. until bioanalysis. Animals were sacrificed immediately followed by abdominal vena-cava cut open and whole body was perfused from heart using 10 mL of normal saline. After isolation, tissue samples were rinsed three times in ice cold normal saline (for 5-10 seconds/rinsed using ˜5-10 mL normal saline in disposable petri dish for each rinse, dried on blotting paper and weighed. Tissue (liver, heart, kidney, pancreas, spleen and skin) samples were homogenized using ice-cold phosphate buffer saline (pH−7.4). Total homogenate volume was five times the tissue weight. All homogenates were stored below −70±10° C. until bioanalysis.
(§2) Plasma, liver, heart, kidney, pancreas, spleen, and skin samples were quantified by fit-for-purpose LC-MS/MS method.

[2] = Organ distribution of ASK1 inhibitor in rats after oral administration; details: male, Sprague-Dawley, rat, single oral 300 mg/kg
Experimental: The objective of this study was to investigate organ (liver, heart, kidney) distribution of ASK1 inhibitor in male Sprague Dawley rats following a single oral (PO) administration at a dose of 300 mg/kg. Three rats are administered orally with suspension formulation of ASK1 inhibitor 2-(6-(4-cyclopropyl-4H-1,2,4-triazol-3-yl)pyridin-2-yl)-5-(morpholine-4-carbonyl)isoindolin-1-one in a formulation of 0.1% Tween 80 and 99.9% HPMC (0.5% w/v in water) at 300 mg/kg dose.
as §1, with “PO administration.” for “IV injection.”, “kidney)” for “kidney, pancreas, spleen and skin)”
as §2

[3] = system: C57Bl/6 male mice; experiment: Efficacy of intravenous ASK1 inhibitor in liver injury due to acute alcoholic hepatitis (pyrazole/LPS model), plasma ALT; details: IV 0.3 and 3 mg/kg twice (3 hours apart), plasma 24 h after LPS
Experimental: The goal of the study is to evaluate whether IV administered ASK1 inhibitor can reduce liver injury due to acute alcoholic hepatitis (AH).
Seven-day acclimated C57Bl/6 male mice were treated with pyrazole for 2-days to induce CYP2E, prior to ASK1 inhibitor and lipopolysaccharide (LPS) administration. On day 3, ASK1 inhibitor 2-(6-(4-cyclopropyl-4H-1,2,4-triazol-3-yl)pyridin-2-yl)-5-(morpholine-4-carbonyl)isoindolin-1-one was administered by IV injection via tail vein at 0.3 and 3 mg/kg or vehicle twice (3 hours apart). LPS was administered intraperitoneally 30 min after the first dose of 2-(6-(4-cyclopropyl-4H-1,2,4-triazol-3-yl)pyridin-2-yl)-5-(morpholine-4-carbonyl)isoindolin-1-one. LPS administration emulates the inflammation by gut bacteria penetrating the intestinal wall following binge drinking. 24 h after LPS administration, plasma was collected for ALT analysis to estimate reduction of liver injury following intravenous treatment with ASK1 inhibitor.

[4] = heart / plasma, read-out: Tissue-to-plasma ratio, Heart
[5] = kidney / plasma, read-out: Tissue-to-plasma ratio, Kidney
[6] = liver / plasma, read-out: Tissue-to-plasma ratio, Liver

O=C(c1ccc2c(c1)CN(c1cccc(-c3nncn3C3CC3)n1)C2=O)N1CCOCC1 [2-(6-(4-cyclopropyl-4H-1,2,4-triazol-3-yl)pyridin-2-yl)-5-(morpholine-4-carbonyl)isoindolin-1-one]
Kp at 1 h [1, 4]: 1.11
Kp at 1 h [1, 5]: 5.99
Kp at 1 h [1, 6]: 9.37
Kp at 1 h ([1]; pancreas / plasma, read-out: Tissue-to-plasma ratio, Pancreas): 0.99
Kp at 1 h ([1]; skin / plasma, read-out: Tissue-to-plasma ratio, Skin): 0.46
Kp at 1 h ([1]; spleen / plasma, read-out: Tissue-to-plasma ratio, Spleen): 0.89
Kp at 1 h [2, 4]: 1.13
Kp at 1 h [2, 5]: 7.47
Kp at 1 h [2, 6]: 13.8
lowered plasma ALT levels [3]: 74-85%

— patent publication US20260021084A1, “METHOD OF TREATING ORGAN DISEASES OR DISORDERS WITH ASK1 INHIBITORS” (Seal Rock Therapeutics, Inc., priority 2022, published 2026)
